Results from patent US20110077263A1, “Methods and Compositions of Toll-Like Receptor (TLR) Agonists” (priority 2009, published 2011).

Columns and labels:
[1] = tested on: DC; assay: Imidazoquinoline activation assay on DC, surface markers by flow cytometry; type: cell-based, human
[2] = tested on: LC and LC exposed to HPV16 VLP; type: cell-based, human; conditions: 5 μM 3M-002, 30 μM imiquimod, 30 μM resiquimod, 5 μM 3M-031, 24 h; for expression of surface markers (MHC class I, MHC class II, CD80, CD86) on LC exposed to HPV16 VLP: then treated; for expression of surface markers (MHC class I, MHC class II, CD80, CD86) on LC: LC not exposed to VLP
Procedure: For DC, plastic adherent cells were selected by plating 2×10^8 cells in a 175-cm^2 tissue culture flask for 2 h at 37° C. Nonadherent cells were washed away and the remaining cells were cultured for 7 days in complete medium containing 1000 U/ml rGM-CSF (Berlex) and 1000 U/ml rIL-4 (BioSource International), of which 100% was replenished on day 3 and 50% was replenished on day 6. For LC, adherent cells were cultured for 7 days in complete medium containing 1000 U/ml rGM-CSF, 1000 U/ml rIL-4, and 10 ng/ml rTGF-β1 (BioSource International), of which 100% was replenished on day 3, 50% of rGM-CSF and rIL-4 was replenished on day 6, and 100% of rTGF-β1 was replenished on days 3 and 6.
(§1) DC and LC were harvested and washed twice with PBS. […] The cells were incubated for 1 h at 37° C., mixed occasionally, and finally placed at 37° C. for 24 h in complete medium containing 1000 U/ml rGM-CSF. LC were left untreated or exposed to HPV16 VLP at a concentration of 10 μg/10^6 cells. The cells were incubated for 1 h at 37° C., mixed occasionally, and placed at 37° C. for 24 h in complete medium containing 1000 U/ml rGM-CSF. […] DC and LC were harvested, washed, and analyzed by flow cytometry for the expression and surface markers. Additionally, untreated LC and LC exposed to HPV16 VLP were also analyzed for the expression of TLR7 and TLR8.
Each population of cells was harvested after the final incubation and analyzed by flow cytometry for the expression of surface markers.

[3] = tested on: LC and LC exposed to HPV16 VLP; type: cell-based, human; conditions: LC, and LC exposed to HPV16 VLP and then stimulated; for IP-10, MCP-1 and RANTES (CCL5) secretion: data not shown; for IL-12p70, TNF-α, IL-6, IL-8 and MIP-1β concentrations in supernatant: versus negative controls
Procedure: as §1
Supernatants were collected from LC stimulated in the imidazoquinolines activation assay and submitted to the Beckman Center for Immune Monitoring Core at the University of Southern California for cytokine and chemokine analysis. The assays were completed using Human Cytokine LINCOplex Kits (LINCO Research) and the Bio-Plex Suspension Array System (Bio-Rad).
Imidazoquinolines stimulate both an innate and an adaptive immune response. The innate immune response induced by imidazoquinolines drives the adaptive immune response into a Th1 cell-mediated response via the local cytokine and chemokine milieu generated primarily by activated macrophages and DC. Thus, Applicants wanted to determine whether selected imidazoquinolines could stimulate LC exposed to HPV16 VLP to produce a proinflammatory cytokine and chemokine profile similar to the cytokine milieu known to be generated by imidazoquinoline-activated DC. Cytokines and chemokines produced by untreated LC, LC exposed to HPV16 VLP, LC treated with each of the imidazoquinoline compounds, and LC exposed to HPV16 VLP and treated with the imidazoquinoline compounds were evaluated. Supernatant from each treatment was collected and analyzed using a human cytokine LINCOplex assay.

[4] = tested on: LC exposed to HPV16 VLP; assay: CCR7 expression on LC by flow cytometry; type: cell-based, human; conditions: then treated
[5] = tested on: LC exposed to HPV16 VLP; assay: Transwell migration assay toward CCL21; type: cell-based, human; conditions: then treated, 250 ng/ml CCL21, 3 h
Procedure: LC, HPV16 VLP-exposed LC, or HPV16 VLP-exposed LC treated with each of the imidazoquinolines, using the same concentrations as stated in the imidazoquinoline activation assay, to the upper chambers. The plates were incubated for 3 h at 37° C. Cells that migrated to the lower chamber were counted, and migration was calculated as the ratio of cells that migrated with/without CCL21.

[6] = tested on: LC exposed to HPV16 cVLP with autologous CD8+ T cells; type: cell-based, human; conditions: then stimulated, versus untreated LC and LC exposed to cVLP
Procedure: Briefly, LC were left untreated or exposed to 10 μg of HPV16 cVLP for 1 h at 37° C. in PBS. Subsequently, the cells were incubated for 4 h in complete medium supplemented with 1000 U/ml rGM-CSF at 37° C. Then cells were treated with or without each of the imidazoquinolines and incubated for 20 h at 37° C. […] LC were irradiated (25 Gy) and mixed with autologous CD8^+ T cells isolated from PBL by positive selection using a MACS MulitSort CD8^+ isolation kit (Miltenyi Biotec). Day 7 and 14 re-stimulations were done with LC treated as indicated above. For this, the medium was supplemented with IL-2 at 50 U/ml at 48 and 96 h after re-stimulation. After 28 days, cells were pooled and tested for IFN-γ production by ELISPOT as a measurement of HPV16-E7-specific CD8^+ T cell responses. Briefly, 96-well multiscreen hemagglutinin plates (Millipore) were coated with 10 μg/ml anti-human IFN-γ in PBS overnight, washed with PBS/0.5% Tween 20, and blocked for 4 h with complete medium at 37° C./5% CO2. Then, 2.5×10^5 cells/well were incubated in the presence or absence of HPV16-E7 peptide aa 86-93 for 18 h at 37° C. […] Individual spots were counted after staining with 3-amino-9-ethyl-carbazole substrate (Sigma-Aldrich). Spots were counted using the video-imaging KS ELISPOT analysis system (Zeiss).

[7] = tested on: LC exposed to HPV16 L1L2 VLP; type: cell-based, human; conditions: co-stimulatory and activation molecules, Th1-promoting cytokines, HPV-specific T cells
Procedure: LC were left untreated or exposed to HPV16 L1L2 VLP for 18 h at 37° C. […] Cell supernatants were analyzed for IL-12 p40/p70 using a Bio-plex suspension bead ELISA (BioRad, Hercules, Calif.).

[8] = tested on: TLR7 and/or TLR8; conditions: cited from earlier work
[9] = tested on: LC; conditions: Burns et al. 2000; Suzuki et al. 2000; cited from earlier work
[10] = tested on: LC; conditions: previous studies; cited from earlier work
[11] = tested on: LC; conditions: allogenic MLR; Burns et al. 2000; cited from earlier work
[12] = cited from earlier work
[13] = tested on: LC; conditions: mouse model; Suzuki et al. 2000; cited from earlier work
[14] = tested on: high-risk HPV-induced vulvar intraepithelium neoplasia (VIN); conditions: van Seters et al. 2008; cited from earlier work
[15] = tested on: cervical intraepithelial neoplasia (CIN); conditions: cited from earlier work

| SMILES | expression of surface markers (MHC class I, MHC class II, CD80, CD86) on DC [1] | expression of surface markers (MHC class I, MHC class II, CD80, CD86) on LC exposed to HPV16 VLP [2] | expression of surface markers (MHC class I, MHC class II, CD80, CD86) on LC [2] | IP-10, MCP-1 and RANTES (CCL5) secretion [3] | IL-12p70, TNF-α, IL-6, IL-8 and MIP-1β concentrations in supernatant [3] | expression of CCR7 [4] | migration toward CCL21 [5] | HPV16 E7 86-93 epitope-specific CD8+ T cell response (IFN-γ ELISPOT) [6] | activation of HPV-exposed LC [7] | Agonist receptor(s) [8] | phenotypic and functional activation of LC [9] | transcription of cytokine genes (TNF-α, IL-6, IL-12p40 mRNA) [10] | allostimulatory capacity of treated LC (T cell proliferation) [11] | water solubility [12] [mg/mL] | migration of LC [13] | treatment of high-risk HPV-induced VIN [14] | regression of cervical intraepithelial neoplasia (CIN) ([15]; clinical trials) | toxicity to the cervix ([15]; in vivo) |
| --- | --- | --- | --- | --- | --- | --- | --- | --- | --- | --- | --- | --- | --- | --- | --- | --- | --- | --- |
| CCOCc1nc2c(N)nc3ccccc3c2n1CC(C)(C)O [resiquimod] | induced the up-regulation of surface markers | significantly induced the up-regulation of the surface markers | significantly induced the up-regulation of surface marker | highly secreted | statistically significantly elevated | induced the up-regulation of CCR7 | significantly induced the migration | initiated a statistically significant HPV16 epitope-specific response | fully activated HPV treated LC | TLR8/7 | do not phenotypically but functionally activate LC | enhanced the transcription of the genes | highly increased the allostimulatory capacity of LC |  |  |  |  |  |
| CCOCc1nc2c(N)nc3ccccc3c2[nH]1 [CL097] |  |  |  |  |  |  |  |  |  |  |  |  |  | ≥ 20 |  |  |  |  |
| CC(C)Cn1cnc2c(N)nc3ccccc3c21 [imiquimod] | induced the up-regulation of surface markers | moderately increased the expression of surface markers | only a minor up-regulation of surface markers | comparable amounts | comparable amounts | did not induce the expression of CCR7 | did not enhance CCL21-directed migration | did not induce a significant HPV16 epitope-specific immune response | did not activate HPV-exposed LC | TLR7 |  | enhanced the transcription of the genes |  |  | induces the migration of LC | successful in treating | has not led to regression | toxic to the cervix |
| CCCc1nc2c(N)nc3ccccc3c2s1 [3M-002] |  |  |  |  |  |  |  |  |  | TLR8 |  |  |  |  |  |  |  |  |
